Laboratory results as given in US20250002464A1, “NOVEL COMPOUND AND PHARMACEUTICAL COMPOSITION COMPRISING SAME” (SAPIENSBIO INC., priority 2021, published 2025).

System: α-SMA
Assay: α-SMA expression inhibitory ability in MRC5 cell line (Western blotting)
Assay type: cell-based
Conditions: TGF-β1 (10 ng/mL), 72 hours, relative to TGF-β1 only
Description: Subsequently, the inhibitory effect on pulmonary fibrosis of the compounds according to the present invention was overall evaluated. An MRC5 cell line was treated with each compound at 10 μM, and 2 hours later, treated with TGF-β1 (10 ng/mL). After 72 hours, the cells were lysed using RIPA Buffer, and then an α-SMA protein level was measured through Western blotting. The α-SMA expression level when treating the cells with each compound and TGF-β1 compared to the α-SMA expression level when treating the cells only with TGF-β1 without the compound was calculated as the α-SMA expression inhibitory ability of the corresponding compound. The α-SMA expression inhibitory ability of each compound is summarized in Table 2 below (A: inhibitory ability≥70%, B: 50%: inhibitory ability<70%, C: inhibitory ability<50%).

Row | SMILES | inhibition at 10 µM [%]
1 | O=C(CCN1CCCCC1)N1CCN(Cc2ccncc2)c2ccccc21 [Compound 123, 3-(piperidin-1-yl)-1-(4-(pyridin-4-ylmethyl)-3,4-dihydroquinoxaline-1(2H)-yl)propan-1-one] | < 50
2 | O=C(CCN1CCCC1)N1CCN(c2ccccc2Cl)c2ccccc21 [Compound 125, 1-(4-(2-chlorophenyl)-3,4-dihydroquinoxaline-1(2H)-yl)-3-(pyrrolidin-1-yl)propan-1-one] | 50 to 70
3 | O=C(CCN1CCCCC1)N1CCN(c2ccccc2Cl)c2ccccc21 [Compound 126, 1-(4-(2-chlorophenyl)-3,4-dihydroquinoxaline-1(2H)-yl)-3-(piperidin-1-yl)propan-1-one] | 50 to 70
4 | CN1CCN(CCC(=O)N2CCN(c3ccccc3Cl)c3ccccc32)CC1 [Compound 127, 1-(4-(2-chlorophenyl)-3,4-dihydroquinoxaline-1(2H)-yl)-3-(4-methylpiperazin-1-yl)propan-1-one] | 50 to 70
5 | CC(C(=O)N1CCN(c2ccccc2Cl)c2ccccc21)N1CCCC1 (centres unmarked) [Compound 128, 1-(4-(2-chlorophenyl)-3,4-dihydroquinoxaline-1(2H)-yl)-2-(pyrrolidin-1-yl)propan-1-one] | 50 to 70
6 | CC(C(=O)N1CCN(c2ccccc2Cl)c2ccccc21)N1CCCCC1 (centres unmarked) [Compound 129, 1-(4-(2-chlorophenyl)-3,4-dihydroquinoxaline-1(2H)-yl)-2-(piperidin-1-yl)propan-1-one] | ≥ 70
7 | CC(C(=O)N1CCN(c2ccccc2Cl)c2ccccc21)N1CCN(C)CC1 (centres unmarked) [Compound 130, 1-(4-(2-chlorophenyl)-3,4-dihydroquinoxaline-1(2H)-yl)-2-(4-methylpiperazin-1-yl)propan-1-one] | 50 to 70
8 | O=C(CN1CCCC1)N1CCN(c2ccccc2Cl)c2ccccc21 [Compound 131, 1-(4-(2-chlorophenyl)-3,4-dihydroquinoxaline-1(2H)-yl)-2-(pyrrolidin-1-yl)ethan-1-one] | 50 to 70
9 | O=C(CN1CCCCC1)N1CCN(c2ccccc2Cl)c2ccccc21 [Compound 132, 1-(4-(2-chlorophenyl)-3,4-dihydroquinoxaline-1(2H)-yl)-2-(piperidin-1-yl)ethan-1-one] | 50 to 70
10 | CN1CCN(CC(=O)N2CCN(c3ccccc3Cl)c3ccccc32)CC1 [Compound 133, 1-(4-(2-chlorophenyl)-3,4-dihydroquinoxaline-1(2H)-yl)-2-(4-methylpiperazin-1-yl)ethan-1-one] | 50 to 70
11 | O=C(CCN1CCCC1)N1CCN(c2cccc(Cl)c2)c2ccccc21 [Compound 134, 1-(4-(3-chlorophenyl)-3,4-dihydroquinoxaline-1(2H)-yl)-3-(pyrrolidin-1-yl)propan-1-one] | ≥ 70
12 | CN1CCN(CCC(=O)N2CCN(c3cccc(Cl)c3)c3ccccc32)CC1 [Compound 135, 1-(4-(3-chlorophenyl)-3,4-dihydroquinoxaline-1(2H)-yl)-3-(4-methylpiperazin-1-yl)propan-1-one] | ≥ 70
13 | CC(C(=O)N1CCN(c2cccc(Cl)c2)c2ccccc21)N1CCCC1 (centres unmarked) [Compound 136, 1-(4-(3-chlorophenyl)-3,4-dihydroquinoxaline-1(2H)-yl)-2-(pyrrolidin-1-yl)propan-1-one] | ≥ 70
14 | CC(C(=O)N1CCN(c2cccc(Cl)c2)c2ccccc21)N1CCN(C)CC1 (centres unmarked) [Compound 137, 1-(4-(3-chlorophenyl)-3,4-dihydroquinoxaline-1(2H)-yl)-2-(4-methylpiperazin-1-yl)propan-1-one] | ≥ 70
15 | O=C(CN1CCCC1)N1CCN(c2cccc(Cl)c2)c2ccccc21 [Compound 138, 1-(4-(3-chlorophenyl)-3,4-dihydroquinoxaline-1(2H)-yl)-2-(pyrrolidin-1-yl)ethan-1-one] | ≥ 70
16 | CN1CCN(CC(=O)N2CCN(c3cccc(Cl)c3)c3ccccc32)CC1 [Compound 139, 1-(4-(3-chlorophenyl)-3,4-dihydroquinoxaline-1(2H)-yl)-2-(4-methylpiperazin-1-yl)ethan-1-one] | ≥ 70
17 | O=C(CCN1CCCC1)N1CCN(c2ccc(Cl)cc2)c2ccccc21 [Compound 140, 1-(4-(4-chlorophenyl)-3,4-dihydroquinoxaline-1(2H)-yl)-3-(pyrrolidin-1-yl)propan-1-one] | < 50
18 | O=C(CCN1CCCCC1)N1CCN(c2ccc(Cl)cc2)c2ccccc21 [Compound 141, 1-(4-(4-chlorophenyl)-3,4-dihydroquinoxaline-1(2H)-yl)-3-(piperidin-1-yl)propan-1-one] | 50 to 70
19 | CC(C(=O)N1CCN(c2ccc(Cl)cc2)c2ccccc21)N1CCN(C)CC1 (centres unmarked) [Compound 145, 1-(4-(4-chlorophenyl)-3,4-dihydroquinoxaline-1(2H)-yl)-2-(4-methylpiperazin-1-yl)propan-1-one] | ≥ 70
20 | O=C(CCN1CCCC1)N1CCN(c2ccccn2)c2ccccc21 [Compound 146] | < 50
21 | CC(C(=O)N1CCN(c2ccccn2)c2ccccc21)N1CCCC1 (centres unmarked) [Compound 149] | < 50

Row | SMILES | inhibition at 10 µM [%]
22 | CC(C(=O)N1CCN(c2ccccn2)c2ccccc21)N1CCCCC1 (centres unmarked) [Compound 150] | ≥ 70
23 | O=C(CN1CCCC1)N1CCN(c2ccccn2)c2ccccc21 [Compound 152] | ≥ 70
24 | O=C(CN1CCCCC1)N1CCN(c2ccccn2)c2ccccc21 [Compound 153, 2-(piperidin-1-yl)-1-(4-(pyridin-2-yl)-3,4-dihydroquinoxaline-1(2H)-yl)ethan-1-one] | ≥ 70
25 | CN1CCN(CC(=O)N2CCN(c3ccccn3)c3ccccc32)CC1 [Compound 154, 2-(4-methylpiperazin-1-yl)-1-(4-(pyridin-2-yl)-3,4-dihydroquinoxaline-1(2H)-yl)ethan-1-one di L-tartrate] | ≥ 70
26 | O=C(CCN1CCCC1)N1CCN(c2ccncc2)c2ccccc21 [Compound 158, 1-(4-(pyridin-4-yl)-3,4-dihydroquinoxaline-1(2H)-yl)-3-(pyrrolidin-1-yl)propan-1-one] | < 50
27 | O=C(CCN1CCCCC1)N1CCN(c2ccncc2)c2ccccc21 [Compound 159, 3-(piperidin-1-yl)-1-(4-(pyridin-4-yl)-3,4-dihydroquinoxaline-1(2H)-yl)propan-1-one] | < 50
28 | O=C(CCN1CCCC1)N1CCN(CC2CC2)c2ccccc21 [Compound 161, 1-(4-(cyclopropylmethyl)-3,4-dihydroquinoxaline-1(2H)-yl)-3-(pyrrolidin-1-yl)propan-1-one] | < 50
29 | O=C(CCN1CCCCC1)N1CCN(CC2CC2)c2ccccc21 [Compound 162, 1-(4-(cyclopropylmethyl)-3,4-dihydroquinoxaline-1(2H)-yl)-3-(piperidin-1-yl)propan-1-one] | < 50
30 | CN1CCN(CCC(=O)N2CCN(CC3CC3)c3ccccc32)CC1 [Compound 163, 1-(4-(cyclopropylmethyl)-3,4-dihydroquinoxaline-1(2H)-yl)-3-(4-methylpiperazin-1-yl)propan-1-one] | < 50
31 | CC(C(=O)N1CCN(CC2CC2)c2ccccc21)N1CCCCC1 (centres unmarked) [Compound 165, 1-(4-(cyclopropylmethyl)-3,4-dihydroquinoxaline-1(2H)-yl)-2-(piperidin-1-yl)propan-1-one] | < 50
32 | CC(C(=O)N1CCN(CC2CC2)c2ccccc21)N1CCN(C)CC1 (centres unmarked) [Compound 166, 1-(4-(cyclopropylmethyl)-3,4-dihydroquinoxaline-1(2H)-yl)-2-(4-methylpiperazin-1-yl)propan-1-one] | < 50
33 | CC(C)CN1CCN(C(=O)CCN2CCCCC2)c2ccccc21 [Compound 169, 1-(4-isobutyl-3,4-dihydroquinoxaline-1(2H)-yl)-3-(piperidin-1-yl)propan-1-one] | 50 to 70
34 | CC(C)CN1CCN(C(=O)CCN2CCN(C)CC2)c2ccccc21 [Compound 170, 1-(4-isobutyl-3,4-dihydroquinoxaline-1(2H)-yl)-3-(4-methylpiperazin-1-yl)propan-1-one di L-tartrate] | 50 to 70
35 | CC(C)CN1CCN(C(=O)C(C)N2CCCCC2)c2ccccc21 (centres unmarked) [Compound 172, 1-(4-isobutyl-3,4-dihydroquinoxaline-1(2H)-yl)-2-(piperidin-1-yl)propan-1-one] | < 50
36 | CC(C)CN1CCN(C(=O)C(C)N2CCN(C)CC2)c2ccccc21 (centres unmarked) [Compound 173, 1-(4-isobutyl-3,4-dihydroquinoxaline-1(2H)-yl)-2-(4-methylpiperazin-1-yl)propan-1-one] | 50 to 70
37 | CC(C)CN1CCN(C(=O)CN2CCCC2)c2ccccc21 [Compound 174, 1-(4-isobutyl-3,4-dihydroquinoxaline-1(2H)-yl)-2-(pyrrolidin-1-yl)ethan-1-one] | 50 to 70
38 | CC(C)CN1CCN(C(=O)CN2CCCCC2)c2ccccc21 [Compound 175, 1-(4-isobutyl-3,4-dihydroquinoxaline-1(2H)-yl)-2-(piperidin-1-yl)ethan-1-one] | < 50
39 | CC(C)CN1CCN(C(=O)CN2CCN(C)CC2)c2ccccc21 [Compound 176, 1-(4-isobutyl-3,4-dihydroquinoxaline-1(2H)-yl)-2-(4-methylpiperazin-1-yl)ethan-1-one] | < 50
40 | CC(C)N1CCN(C(=O)CCN2CCCC2)c2ccccc21 [Compound 177, 1-(4-isopropyl-3,4-dihydroquinoxaline-1(2H)-yl)-3-(pyrrolidin-1-yl)propan-1-one] | < 50
41 | CC(C)N1CCN(C(=O)CCN2CCCCC2)c2ccccc21 [Compound 178, 1-(4-isopropyl-3,4-dihydroquinoxaline-1(2H)-yl)-3-(piperidin-1-yl)propan-1-one] | < 50
